Measured values reported in patent US20230072860A1, “ISOXAZOLINE OXIME FORMATE COMPOUND, PREPARATION METHOD THEREFOR, HERBICIDAL COMPOSITION AND USE THEREOF” (QINGDAO KINGAGROOT CHEMICAL COMPOUND CO., LTD., priority 2020, published 2023).

What was measured:
Experiment in all cases: Experiment on weeding effect in post-emergence stage
Format in all cases: in vivo
Settings in all cases: dose 15 g a.i./ha, fresh weight control rate level
Digitaria sanguinalis = system: Digitaria sanguinalis
Description: (§1) Experiment on weeding effect in post-emergence stage:
(§2) Monocotyledonous and dicotyledonous weed seeds (Descurainia sophia, Capsella bursa-pastoris, Abutilon theophrasti, Galium aparine, Stellaria media, Lithospermum arvense, Rorippa indica, Alopecurus aequalis, Alopecurus japonicus, Beckmannia syzigachne, Sclerochloa dura, Conyza Canadensis, Phleum paniculatum, Veronica didyma Tenore, Eleusine indica, Bromus japonicus, Aegilops tauschii, Phalaris arundinacea, Amaranthus retroflexus, Chenopodium album, Commelina communis, Sonchus arvensis, Convolvulus arvensis, Cirsium setosum, Solanum nigrum, Acalypha australis, Digitaria sanguinalis, Echinochloa crusgalli, Setaria viridis, Setaria glauca, Leptochloa chinensis, Monochoria vaginalis, Sagittaria trolia, Scirpus juncoides, Cyperus rotundus, Cyperus iria, Cyperus difformis, Elmbristylis, Portulaca oleracea, Xanthium sibiricum, Pharbitis nil) and major crop seeds (wheat, corn, rice, soybean, cotton, oilseed rape, millet, sorghum, potato, sesame, ricinus) were placed in plastic pots filled with soil, then covered with 0.5-2 cm of soil, allowed to grow in a good greenhouse environment. After 2 weeks of sowing, the test plants were treated in the 2-3 leaf stage. The tested compounds of the present invention were respectively dissolved in acetone, then added with Tween 80 and 1.5 liter/ha of emulsifiable concentrate of methyl oleate as synergist, diluted with a certain amount of water to obtain a solution with a certain concentration, and sprayed with a spray tower onto the plants. After the application, the plants were cultured for 3 weeks in the greenhouse, and then the experimental results of the weeding were counted. The doses of the used compounds were 500, 250, 125, 60, 15 g a.i./ha, and the averages were obtained by repeating for three times.

Galium aparine = system: Galium aparine
Description: as §1, §2

Setaria viridis = system: Setaria viridis
Description: as §1, §2

Eleusine indica = system: Eleusine indica
Description: as §1, §2

Veronica didyma Tenore = system: Veronica didyma Tenore
Description: as §1, §2

Amaranthus retroflexus = system: Amaranthus retroflexus
Description: as §1, §2

Echinochloa crusgalli = system: Echinochloa crusgalli
Description: as §1, §2

Abutilon theophrasti = system: Abutilon theophrasti
Description: as §1, §2

Leptochloa chinensis = system: Leptochloa chinensis
Description: as §1, §2

Row | Structure (SMILES) | weeding effect in post-emergence stage, Digitaria sanguinalis (level) (Digitaria sanguinalis) | weeding effect in post-emergence stage, Galium aparine (level) (Galium aparine) | weeding effect in post-emergence stage, Setaria viridis (level) (Setaria viridis) | weeding effect in post-emergence stage, Eleusine indica (level) (Eleusine indica) | weeding effect in post-emergence stage, Veronica didyma Tenore (level) (Veronica didyma Tenore) | weeding effect in post-emergence stage, Amaranthus retroflexus (level) (Amaranthus retroflexus) | weeding effect in post-emergence stage, Echinochloa crusgalli (level) (Echinochloa crusgalli) | weeding effect in post-emergence stage, Abutilon theophrasti (level) (Abutilon theophrasti) | weeding effect in post-emergence stage, Leptochloa chinensis (level) (Leptochloa chinensis)
1 | CCC(CC)=NOC(=O)C1(C)CC(c2cc(-n3c(=O)n(C)c(=S)n(C)c3=S)c(F)cc2Cl)=NO1 (stereo not drawn) [Compound 60] | 5 (Level 5: growth control rate is above 85%) | 5 (Level 5: growth control rate is above 85%) | 5 (Level 5: growth control rate is above 85%) | 5 (Level 5: growth control rate is above 85%) | 5 (Level 5: growth control rate is above 85%) | 5 (Level 5: growth control rate is above 85%) | 5 (Level 5: growth control rate is above 85%) | 5 (Level 5: growth control rate is above 85%) | 5 (Level 5: growth control rate is above 85%)
2 | C/C(=N\OC(=O)C1(C)CC(c2cc(-n3c(=O)n(C)c(=S)n(C)c3=S)c(F)cc2Cl)=NO1)C1CC1 (stereo not drawn) [Compound 61] | 5 (Level 5: growth control rate is above 85%) | 5 (Level 5: growth control rate is above 85%) | 5 (Level 5: growth control rate is above 85%) | 5 (Level 5: growth control rate is above 85%) | 5 (Level 5: growth control rate is above 85%) | 5 (Level 5: growth control rate is above 85%) | 5 (Level 5: growth control rate is above 85%) | 5 (Level 5: growth control rate is above 85%) | 5 (Level 5: growth control rate is above 85%)
3 | CCO/C(C)=N/OC(=O)C1(C)CC(c2cc(-n3c(=O)n(C)c(=S)n(C)c3=S)c(F)cc2Cl)=NO1 (stereo not drawn) [Compound 67] | 5 (Level 5: growth control rate is above 85%) | 5 (Level 5: growth control rate is above 85%) | 5 (Level 5: growth control rate is above 85%) | 5 (Level 5: growth control rate is above 85%) | 5 (Level 5: growth control rate is above 85%) | 5 (Level 5: growth control rate is above 85%) | 5 (Level 5: growth control rate is above 85%) | 5 (Level 5: growth control rate is above 85%) | 5 (Level 5: growth control rate is above 85%)
4 | COC/C(C)=N/OC(=O)C1(C)CC(c2cc(-n3c(=O)n(C)c(=S)n(C)c3=S)c(F)cc2Cl)=NO1 (stereo not drawn) [Compound 68] | 5 (Level 5: growth control rate is above 85%) | 5 (Level 5: growth control rate is above 85%) | 5 (Level 5: growth control rate is above 85%) | 5 (Level 5: growth control rate is above 85%) | 5 (Level 5: growth control rate is above 85%) | 5 (Level 5: growth control rate is above 85%) | 5 (Level 5: growth control rate is above 85%) | 5 (Level 5: growth control rate is above 85%) | 5 (Level 5: growth control rate is above 85%)
5 | Cn1c(=S)n(C)c(=S)n(-c2cc(C3=NOC(C)(C(=O)O/N=C/c4ccccc4)C3)c(Cl)cc2F)c1=O (stereo not drawn) [Compound 69] | 5 (Level 5: growth control rate is above 85%) | 5 (Level 5: growth control rate is above 85%) | 5 (Level 5: growth control rate is above 85%) | 5 (Level 5: growth control rate is above 85%) | 5 (Level 5: growth control rate is above 85%) | 5 (Level 5: growth control rate is above 85%) | 5 (Level 5: growth control rate is above 85%) | 5 (Level 5: growth control rate is above 85%) | 5 (Level 5: growth control rate is above 85%)
6 | C/C(=N\OC(=O)C1(C)CC(c2cc(-n3c(=O)n(C)c(=S)n(C)c3=S)c(F)cc2Cl)=NO1)c1ccccc1 (stereo not drawn) [Compound 70] | 5 (Level 5: growth control rate is above 85%) | 5 (Level 5: growth control rate is above 85%) | 5 (Level 5: growth control rate is above 85%) | 5 (Level 5: growth control rate is above 85%) | 5 (Level 5: growth control rate is above 85%) | 5 (Level 5: growth control rate is above 85%) | 5 (Level 5: growth control rate is above 85%) | 5 (Level 5: growth control rate is above 85%) | 5 (Level 5: growth control rate is above 85%)
7 | Cn1c(=S)n(C)c(=S)n(-c2cc(C3=NOC(C)(C(=O)ON=C(c4ccccc4)c4ccccc4)C3)c(Cl)cc2F)c1=O (stereo not drawn) [Compound 71] | 5 (Level 5: growth control rate is above 85%) | 5 (Level 5: growth control rate is above 85%) | 5 (Level 5: growth control rate is above 85%) | 5 (Level 5: growth control rate is above 85%) | 5 (Level 5: growth control rate is above 85%) | 5 (Level 5: growth control rate is above 85%) | 5 (Level 5: growth control rate is above 85%) | 5 (Level 5: growth control rate is above 85%) | 5 (Level 5: growth control rate is above 85%)
8 | Cn1c(=S)n(C)c(=S)n(-c2cc(C3=NOC(C)(C(=O)ON=C4CCCC4)C3)c(Cl)cc2F)c1=O (stereo not drawn) [Compound 74] | 5 (Level 5: growth control rate is above 85%) | 5 (Level 5: growth control rate is above 85%) | 5 (Level 5: growth control rate is above 85%) | 5 (Level 5: growth control rate is above 85%) | 5 (Level 5: growth control rate is above 85%) | 5 (Level 5: growth control rate is above 85%) | 5 (Level 5: growth control rate is above 85%) | 5 (Level 5: growth control rate is above 85%) | 5 (Level 5: growth control rate is above 85%)
9 | CCOC(=O)C(C)=NOC(=O)C1(C)CC(c2cc(-n3c(=O)n(C)c(=S)n(C)c3=S)c(F)cc2Cl)=NO1 (stereo not drawn) [Compound 75] | 5 (Level 5: growth control rate is above 85%) | 5 (Level 5: growth control rate is above 85%) | 5 (Level 5: growth control rate is above 85%) | 5 (Level 5: growth control rate is above 85%) | 5 (Level 5: growth control rate is above 85%) | 5 (Level 5: growth control rate is above 85%) | 5 (Level 5: growth control rate is above 85%) | 5 (Level 5: growth control rate is above 85%) | 5 (Level 5: growth control rate is above 85%)
